Assay results from ChEMBL document CHEMBL1201862, “PubChem BioAssay data set” (2004).
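A five-concentration, 48-hour dose response in 96-well plates underlies each endpoint, interpolated linearly between surrounding concentrations. GI50: concentration for 50% inhibition of growth.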 Activity calls are given as the source filed them. Cut-off read from the data, not from the text of the source: active = GI50 up to about 1.1 µM and inactive = higher.

Key:
Assay in all cases: NCI-60 cell line screen, 48 h
[1] = tested on: ACHN
[2] = tested on: U-251
[3] = tested on: KM12
[4] = tested on: COLO 205
[5] = tested on: A498
[6] = tested on: OVCAR-5
[7] = tested on: 786-0
[8] = tested on: RXF 393
[9] = tested on: SK-MEL-28
[10] = tested on: SF-268
[11] = tested on: SK-MEL-5
[12] = tested on: SR
[13] = tested on: LOX IMVI
[14] = tested on: NCI-H226

Measured: GI50

O=c1cc[nH]c2ccc3nn[nH]c3c12
inactive: [1] > 100 µM | [2] > 100 µM | [3] > 100 µM | [4] > 100 µM | [5] > 100 µM | [6] > 100 µM | [7] > 100 µM | [8] > 100 µM | [9] > 100 µM | [10] > 100 µM | [11] > 100 µM

O=C(c1ccco1)N(C(=S)N1CCN(c2ccccn2)CC1)c1ccccc1
inactive: [1] > 100 µM | [12] > 100 µM | [2] > 100 µM | [3] > 100 µM | [13] > 100 µM | [4] > 100 µM | [6] > 100 µM | [7] > 100 µM | [14] 18.7 µM | [8] > 100 µM | [9] > 100 µM | [10] > 100 µM | [11] > 100 µM

COc1ccc(CC#N)c(OCc2ccccc2)c1
inactive: [1] 27 µM | [12] 33.4 µM | [3] 61.5 µM | [13] 43.8 µM | [4] 40.4 µM | [5] 11.2 µM | [7] > 100 µM | [14] 6.73 µM | [9] 23.9 µM | [10] 68.4 µM | [11] 19.7 µM

CCN(C1=CC(=O)NC2CCCCN12)c1ccccc1 (stereo not given)
inactive: [1] > 100 µM | [2] > 100 µM | [3] > 100 µM | [13] > 100 µM | [4] > 100 µM | [5] > 100 µM | [6] > 100 µM | [7] > 100 µM | [8] > 100 µM | [9] > 100 µM | [10] > 100 µM | [11] > 100 µM

CC12CCCCC1(C)C2Sc1ccccc1 (stereo not given)
inactive: [1] 46.2 µM | [2] 32.3 µM | [3] 49.3 µM | [13] 29.9 µM | [4] > 65.3 µM | [5] > 50.4 µM | [6] > 100 µM | [7] 44.8 µM | [14] 54.3 µM | [8] 23.9 µM | [9] 40.5 µM | [10] 42.3 µM | [11] 31 µM

CC1=C(C(=O)Nc2c(C)cccc2C)C(c2ccccc2Cl)C(C(=O)Nc2c(C)cccc2C)=C(C)N1
inactive: [1] > 100 µM | [2] > 100 µM | [3] > 100 µM | [13] > 100 µM | [4] > 100 µM | [5] > 100 µM | [6] > 100 µM | [7] > 100 µM | [14] > 100 µM | [8] > 100 µM | [9] > 100 µM | [10] > 100 µM | [11] > 100 µM

NC1=NN(c2ccccc2)C(=O)C1C(=O)C(=O)Nc1ccccc1 (stereo not given)
inactive: [1] > 100 µM | [2] > 100 µM | [3] > 100 µM | [13] > 100 µM | [4] > 100 µM | [5] > 100 µM | [6] > 100 µM | [7] > 100 µM | [14] > 100 µM | [10] > 100 µM | [11] > 100 µM

C(=N\CC/N=C/c1cccc2ccccc12)/c1cccc2ccccc12
inactive: [1] > 100 µM | [12] > 100 µM | [2] > 100 µM | [3] > 100 µM | [4] > 100 µM | [6] > 100 µM | [7] > 100 µM | [14] > 100 µM | [8] > 100 µM | [9] > 100 µM | [11] > 100 µM

Cc1cc2ncn(-c3nc4ccccc4nc3C(C#N)S(C)(=O)=O)c2cc1C (stereo not given)
inactive: [1] > 100 µM | [12] > 100 µM | [2] > 100 µM | [3] > 100 µM | [13] > 100 µM | [4] > 100 µM | [5] 19.7 µM | [6] > 100 µM | [7] > 100 µM | [14] 13.4 µM | [9] > 100 µM | [10] > 100 µM | [11] > 100 µM

CCN(CC)CCCCC1CCN(CC(=O)N2c3cc(Cl)ccc3NC(=O)CC2C)CC1 (stereo not given)
inactive: [1] > 100 µM | [12] 74 µM | [2] > 100 µM | [13] > 100 µM | [4] > 100 µM | [5] > 100 µM | [6] > 100 µM | [7] > 100 µM | [14] > 100 µM | [9] > 100 µM | [10] > 100 µM | [11] > 100 µM

CCCCNC(=O)C1C(=O)N(CCCC)C(=O)/C1=N\N (stereo not given)
inactive: [1] > 100 µM | [2] > 100 µM | [3] > 100 µM | [13] > 100 µM | [4] > 100 µM | [5] > 100 µM | [6] > 100 µM | [7] > 100 µM | [14] > 100 µM | [8] > 100 µM | [9] > 100 µM | [10] > 100 µM | [11] > 100 µM

O=C(O)/C(=C/c1c(O)ccc2ccccc12)c1csc(-c2nc(/C(=C\c3c(O)ccc4ccccc34)C(=O)O)cs2)n1
inactive: [1] 4.83 µM | [2] 14 µM | [3] 19.8 µM | [13] 19.8 µM | [4] 16.4 µM | [5] 20.7 µM | [6] 17.5 µM | [7] 13.5 µM | [14] 2.49 µM | [8] 3.21 µM | [9] 14.4 µM | [10] 10 µM | [11] 19.4 µM

ClC(Cl)[Si]12OCCN(CCO1)CCO2
inactive: [1] > 100 µM | [12] > 100 µM | [2] > 100 µM | [3] > 100 µM | [4] > 100 µM | [5] > 100 µM | [6] > 100 µM | [7] > 100 µM | [8] > 100 µM | [9] > 100 µM | [10] > 100 µM | [11] > 100 µM

COc1ccc2[nH]c(=O)cc(C)c2c1[N+](=O)[O-]
inactive: [1] > 100 µM | [2] > 100 µM | [3] > 100 µM | [13] > 100 µM | [4] > 100 µM | [5] 54.8 µM | [6] > 100 µM | [7] > 100 µM | [14] > 100 µM | [8] > 10 µM | [9] > 100 µM | [10] 82 µM | [11] > 100 µM

C=CCC1OC(C)(C)Oc2ccc(OCOCCOC)cc21 (stereo not given)
inactive: [1] > 100 µM | [2] > 100 µM | [3] > 100 µM | [13] > 100 µM | [5] > 100 µM | [6] > 100 µM | [7] > 100 µM | [14] > 10 µM | [8] > 100 µM | [9] > 100 µM | [10] > 100 µM | [11] > 100 µM

Cc1ccccc1NC(=O)C1C(=O)N(c2ccccc2C)C(=O)/C1=N\NC(N)=O (stereo not given)
inactive: [1] > 100 µM | [12] > 100 µM | [2] > 100 µM | [3] > 100 µM | [4] > 100 µM | [5] > 100 µM | [6] > 100 µM | [7] > 100 µM | [8] > 100 µM | [9] > 100 µM | [10] > 100 µM | [11] > 100 µM
